Source: patent publication US4711902A, “Medicament formulation” (Bayer Aktiengesellschaft, priority 1983, dated 1987)
Where two headings read alike, the source gives them in different places.

What was measured:
[1] = lipid content 20% by weight, room temperature
From the text: Ester mixture A: a glycerol triesters of caprylic acid (70%) and capric acid (30%)
Ester mixture D: 50% soy bean oil and 50% glycerol triesters of caprylic acid (70%) and capric acid (30%)

[2] = lipid content 20%, room temperature
[3] = Ester mixture A (glycerol triesters of caprylic acid 70% and capric acid 30%)
[4] = Ester mixture B (propylene glycol diesters of caprylic acid 75% and capric acid 25%)
[5] = Ester mixture C (75% glycerol triesters, 12.5% diesters, 12.5% monoesters of caprylic/capric acid)
[6] = Ester mixture D (50% soy bean oil and 50% glycerol triesters of caprylic acid 70% and capric acid 30%)

Solubility of the medicament in the emulsion ([1]; Soy bean oil) | Solubility of the medicament in the emulsion [1, 3] | Solubility of the medicament in the emulsion [1, 4] | Solubility of the medicament in the emulsion [1, 5] | Solubility of the medicament in the emulsion [1, 6] | Solubility of nimodipine in soy bean oil emulsion ([2]; benzyl alcohol 0% W/W) [%] | Solubility of nimodipine in soy bean oil emulsion ([2]; benzyl alcohol 2% W/W) [%] | Solubility of nimodipine in soy bean oil emulsion ([2]; benzyl alcohol 4% W/W) [%] | Solubility of nimodipine in soy bean oil emulsion ([2]; benzyl alcohol 5% W/W) [%] | SMILES
0.03 % (W/W) | 0.08 % (W/W) | 0.12 % (W/W) | 0.14 % (W/W) | 0.05 % (W/W) | – | – | – | – | CCOC(=O)C1=C(C)NC(C)=C(C(=O)OC)C1c1cccc([N+](=O)[O-])c1 (stereo not shown) [Nitrendipine]
0.01 % (W/W) | 0.06 % (W/W) | 0.06 % (W/W) | 0.32 % (W/W) | 0.02 % (W/W) | – | – | – | – | CC(c1ccc(Cl)c(Cl)c1)N1N=C(N)CC1=O (stereo not shown) [Muzolimine]
0.04 % (W/W) | 0.16 % (W/W) | 0.26 % (W/W) | 0.50 % (W/W) | 0.08 % (W/W) | 0.04 | 0.08 | 0.16 | 0.18 | COCCOC(=O)C1=C(C)NC(C)=C(C(=O)OC(C)C)C1c1cccc([N+](=O)[O-])c1 (stereo not shown) [Nimodipine]

SMILES | Solubility of the medicament in the emulsion ([1]; Soy bean oil) | Solubility of the medicament in the emulsion [1, 3] | Solubility of the medicament in the emulsion [1, 4] | Solubility of the medicament in the emulsion [1, 5] | Solubility of the medicament in the emulsion [1, 6] | Solubility of nimodipine in soy bean oil emulsion ([2]; benzyl alcohol 0% W/W) [%] | Solubility of nimodipine in soy bean oil emulsion ([2]; benzyl alcohol 2% W/W) [%] | Solubility of nimodipine in soy bean oil emulsion ([2]; benzyl alcohol 4% W/W) [%] | Solubility of nimodipine in soy bean oil emulsion ([2]; benzyl alcohol 5% W/W) [%]
CCCOC(=O)Cc1ccc(OCC(=O)N(CC)CC)c(OC)c1 [Propanidide] | 2.80 % (W/W) | – | – | – | – | – | – | – | –
COC(=O)C1=C(C)NC(C)=C(C(=O)OCC(C)C)C1c1ccccc1[N+](=O)[O-] (stereo not shown) [Nisoldipine] | 0.04 % (W/W) | 0.14 % (W/W) | 0.18 % (W/W) | 0.20 % (W/W) | 0.08 % (W/W) | – | – | – | –
